From patent publication US20250325552A1, “SUBSTITUTED THIADIAZOLYL DERIVATIVES AS DNA POLYMERASE THETA INHIBITORS” (IDEAYA Biosciences, Inc., priority 2020, published 2025)

biological target: Polθ theta (1-899) (hPolQ) (Homo sapiens (Human), UniProt O75417); test: Biological Assay 1: Polθ ATPase activity, NADH oxidation-coupled enzymatic assay (10 nM enzyme, 30 min); format: biochemical; settings: Polθ (1-899) 10 nM, 100 μM ATP, 300 nM dT50 ssDNA; Examples 1 to 268; read-out: ATPase NADH coupling:Standard Screening:hPolQ IC50
Sequence (O75417 1-899): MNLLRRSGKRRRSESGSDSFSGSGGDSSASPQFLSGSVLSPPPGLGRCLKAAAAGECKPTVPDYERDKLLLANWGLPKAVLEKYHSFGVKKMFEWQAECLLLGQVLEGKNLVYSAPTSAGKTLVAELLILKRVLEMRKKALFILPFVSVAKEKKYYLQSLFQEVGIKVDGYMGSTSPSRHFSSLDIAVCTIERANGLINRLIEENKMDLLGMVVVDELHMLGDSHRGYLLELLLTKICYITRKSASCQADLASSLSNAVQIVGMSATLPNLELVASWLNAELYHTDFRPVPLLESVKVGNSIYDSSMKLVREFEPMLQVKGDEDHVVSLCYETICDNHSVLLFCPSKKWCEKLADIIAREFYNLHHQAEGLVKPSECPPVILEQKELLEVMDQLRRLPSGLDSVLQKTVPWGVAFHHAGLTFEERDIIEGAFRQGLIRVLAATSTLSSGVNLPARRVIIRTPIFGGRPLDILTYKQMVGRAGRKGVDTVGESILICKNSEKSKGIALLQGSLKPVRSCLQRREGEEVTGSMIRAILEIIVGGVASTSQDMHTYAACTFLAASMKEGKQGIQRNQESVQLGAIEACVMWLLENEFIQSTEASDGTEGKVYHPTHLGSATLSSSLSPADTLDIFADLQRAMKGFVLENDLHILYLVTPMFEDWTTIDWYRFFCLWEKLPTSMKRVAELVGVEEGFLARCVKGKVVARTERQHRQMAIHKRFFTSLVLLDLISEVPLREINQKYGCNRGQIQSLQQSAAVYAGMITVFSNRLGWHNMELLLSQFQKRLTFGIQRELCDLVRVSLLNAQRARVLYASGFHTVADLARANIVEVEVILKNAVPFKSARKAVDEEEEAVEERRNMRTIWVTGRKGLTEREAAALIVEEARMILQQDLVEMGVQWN
Outline: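 Polθ (1-899) at 10 nM was preincubated with compound for 15 min at room temperature in 20 mM Tris pH 7.80, 80 mM KCl, 10 mM MgCl2. An equal volume of 100 μM ATP, 300 nM dT50 ssDNA and a PK/LDH–NADH coupling system was then added. A340 was read each minute for 30 min. IC50 came from rate slopes over 10-point series with a four-parameter fit.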

| Structure (SMILES) | IC50 |
| --- | --- |
| COc1cccc(F)c1-c1cn2ncc(C)c2cc1C(=O)Nc1nnc(OC[C@H]2CC[C@H](O)CC2)s1 [Example 194, 6-(2-fluoro-6-methoxyphenyl)-N-(5-(((1r,4r)-4-hydroxycyclohexyl)methoxy)-1,3,4-thiadiazol-2-yl)-3-methylpyrazolo(1,5-a)pyridine-5-carboxamide] | 1000 to 10000 nM |
| COc1cccc(F)c1-c1cc2nc[nH]c2cc1C(=O)Nc1nnc(OC[C@H]2CC[C@H](O)CC2)s1 [Example 199, 5-(2-fluoro-6-methoxyphenyl)-N-(5-(((1r,4r)-4-hydroxycyclohexyl)methoxy)-1,3,4-thiadiazol-2-yl)-1H-benzo(d)imidazole-6-carboxamide] | 1000 to 10000 nM |
| COc1cccc(F)c1-c1cc2ncn(C)c2cc1C(=O)Nc1nnc(OC[C@H]2CC[C@H](O)CC2)s1 [Example 200, 5-(2-fluoro-6-methoxyphenyl)-N-(5-(((1r,4r)-4-hydroxycyclohexyl)methoxy)-1,3,4-thiadiazol-2-yl)-1-methyl-1H-benzo(d)imidazole-6-carboxamide] | 200 to 500 nM |
| COc1cnc(Cl)cc1-c1cc(C)ncc1C(=O)Nc1nnc(OCC2CC2(F)F)s1 (centres unmarked) [Example 206, 2′-chloro-N-(5-((2,2-difluorocyclopropyl)methoxy)-1,3,4-thiadiazol-2-yl)-5′-methoxy-6-methyl-(4,4′-bipyridine)-3-carboxamide] | ≤ 200 nM |
| COc1cnc(C)c(F)c1-c1cc(C)ncc1C(=O)Nc1nnc(OC[C@H]2CC[C@H](O)CC2)s1 [Example 212, 3′-fluoro-N-(5-(((1r,4r)-4-hydroxycyclohexyl)methoxy)-1,3,4-thiadiazol-2-yl)-5′-methoxy-2′,6-dimethyl-(4,4′-bipyridine)-3-carboxamide] | ≤ 200 nM |
| COc1cnc(C)c(F)c1-c1cc(C)ncc1C(=O)Nc1nnc(OC[C@H]2CC[C@@](C)(O)CC2)s1 [Example 213, 3′-fluoro-N-(5-(((1s,4s)-4-hydroxy-4-methylcyclohexyl)methoxy)-1,3,4-thiadiazol-2-yl)-5′-methoxy-2′,6-dimethyl-(4,4′-bipyridine)-3-carboxamide] | ≤ 200 nM |
| COc1cnc(Cl)cc1-c1cc(C)ncc1C(=O)Nc1nnc(OC[C@H]2CC[C@](C)(O)CC2)s1 [Example 214, 2′-chloro-N-(5-(((1r,4r)-4-hydroxy-4-methylcyclohexyl)methoxy)-1,3,4-thiadiazol-2-yl)-5′-methoxy-6-methyl-(4,4′-bipyridine)-3-carboxamide] | ≤ 200 nM |
| COc1cnc(Cl)cc1-c1cc(C)ncc1C(=O)Nc1nnc(OC[C@H]2CC[C@@](C)(O)CC2)s1 [Example 215, 2′-chloro-N-(5-(((1s,4s)-4-hydroxy-4-methylcyclohexyl)methoxy)-1,3,4-thiadiazol-2-yl)-5′-methoxy-6-methyl-(4,4′-bipyridine)-3-carboxamide] | ≤ 200 nM |
| COCc1cc(-c2cc(Cl)ncc2OC)c(C(=O)Nc2nnc(OC[C@@H]3COCCO3)s2)cn1 [Example 216, (S)—N-(5-((1,4-dioxan-2-yl)methoxy)-1,3,4-thiadiazol-2-yl)-2′-chloro-5′-methoxy-6-(methoxymethyl)-(4,4′-bipyridine)-3-carboxamide] | ≤ 200 nM |
| COc1cnc(C)c(F)c1-c1cc(C)ncc1C(=O)Nc1nnc(OCC23CCC(O)(CC2)C3)s1 [Example 217, 3′-fluoro-N-(5-((4-hydroxybicyclo(2.2.1)heptan-1-yl)methoxy)-1,3,4-thiadiazol-2-yl)-5′-methoxy-2′,6-dimethyl-(4,4′-bipyridine)-3-carboxamide] | ≤ 200 nM |
| COc1cnc(Cl)cc1-c1cc(C)ncc1C(=O)Nc1nnc(OCC23CCC(O)(CC2)C3)s1 [Example 218, 2′-chloro-N-(5-((4-hydroxybicyclo(2.2.1)heptan-1-yl)methoxy)-1,3,4-thiadiazol-2-yl)-5′-methoxy-6-methyl-(4,4′-bipyridine)-3-carboxamide] | ≤ 200 nM |
| COc1cnc(C)c(F)c1-c1cc(C)ncc1C(=O)Nc1nnc(OCC23CCC(O)(CC2)CC3)s1 [Example 219, 3′-fluoro-N-(5-((4-hydroxybicyclo(2.2.2)octan-1-yl)methoxy)-1,3,4-thiadiazol-2-yl)-5′-methoxy-2′,6-dimethyl-(4,4′-bipyridine)-3-carboxamide] | ≤ 200 nM |
| COc1cnc(Cl)cc1-c1cc(C)ncc1C(=O)Nc1nnc(OCC2COC3(CCC3)C2)s1 (centres unmarked) [Example 224, N-(5-((5-oxaspiro(3.4)octan-7-yl)methoxy)-1,3,4-thiadiazol-2-yl)-2′-chloro-5′-methoxy-6-methyl-(4,4′-bipyridine)-3-carboxamide] | ≤ 200 nM |
| COc1cnc(Cl)cc1-c1cc(C)ncc1C(=O)Nc1nnc(OCC2COC3(COC3)C2)s1 (centres unmarked) [Example 225, N-(5-((2,5-dioxaspiro(3.4)octan-7-yl)methoxy)-1,3,4-thiadiazol-2-yl)-2′-chloro-5′-methoxy-6-methyl-(4,4′-bipyridine)-3-carboxamide] | ≤ 200 nM |
| COc1cnc(Cl)cc1-c1cc(C)ncc1C(=O)Nc1nnc(OCC2COC(C)(C)CO2)s1 (centres unmarked) [Example 228, 2′-chloro-N-(5-((5,5-dimethyl-1,4-dioxan-2-yl)methoxy)-1,3,4-thiadiazol-2-yl)-5′-methoxy-6-methyl-(4,4′-bipyridine)-3-carboxamide] | ≤ 200 nM |
| COc1cnc(Cl)cc1-c1cc(C)ncc1C(=O)Nc1nnc(OCC23COC(C2)C3)s1 [Example 229, N-(5-((2-oxabicyclo(2.1.1)hexan-4-yl)methoxy)-1,3,4-thiadiazol-2-yl)-2′-chloro-5′-methoxy-6-methyl-(4,4′-bipyridine)-3-carboxamide] | ≤ 200 nM |
| COc1cnc(Cl)cc1-c1cc(COC2CC2)ncc1C(=O)Nc1nnc(OC[C@H]2CC[C@H](O)CC2)s1 [Example 232, 2′-chloro-6-(cyclopropoxymethyl)-N-(5-(((1r,4r)-4-hydroxycyclohexyl)methoxy)-1,3,4-thiadiazol-2-yl)-5′-methoxy-(4,4′-bipyridine)-3-carboxamide] | ≤ 200 nM |
| Cc1cc(-c2cc(Cl)ncc2OC(F)F)c(C(=O)Nc2nnc(OC[C@@H]3COCCO3)s2)cn1 [Example 233, (S)—N-(5-((1,4-dioxan-2-yl)methoxy)-1,3,4-thiadiazol-2-yl)-2′-chloro-5′-(difluoromethoxy)-6-methyl-(4,4′-bipyridine)-3-carboxamide] | ≤ 200 nM |
| Cc1cc(-c2cc(Cl)ncc2OC(F)F)c(C(=O)Nc2nnc(OC[C@H]3COCCO3)s2)cn1 [Example 234, (R)—N-(5-((1,4-dioxan-2-yl)methoxy)-1,3,4-thiadiazol-2-yl)-2′-chloro-5′-(difluoromethoxy)-6-methyl-(4,4′-bipyridine)-3-carboxamide] | ≤ 200 nM |
| COc1cnc(Br)cc1-c1cc(C)ncc1C(=O)Nc1nnc(OC[C@@H]2COCCO2)s1 [Example 235, (S)—N-(5-((1,4-dioxan-2-yl)methoxy)-1,3,4-thiadiazol-2-yl)-2′-bromo-5′-methoxy-6-methyl-(4,4′-bipyridine)-3-carboxamide] | ≤ 200 nM |

The next lines start with the values.

| IC50 | Structure (SMILES) |
| --- | --- |
| ≤ 200 nM | COc1cccc(F)c1-c1cc2cnc(C)n2cc1C(=O)Nc1nnc(OC[C@H]2CC[C@H](O)CC2)s1 [Example 195, 7-(2-fluoro-6-methoxyphenyl)-N-(5-(((1r,4r)-4-hydroxycyclohexyl)methoxy)-1,3,4-thiadiazol-2-yl)-3-methylimidazo(1,5-a)pyridine-6-carboxamide] |
| ≤ 200 nM | COc1cnc(Cl)cc1-c1cc(C)ncc1C(=O)Nc1nnc(OC[C@H]2CC[C@@H](F)CC2)s1 [Example 196, 2′-chloro-N-(5-(((1s,4s)-4-fluorocyclohexyl)methoxy)-1,3,4-thiadiazol-2-yl)-5′-methoxy-6-methyl-(4,4′-bipyridine)-3-carboxamide] |
| ≤ 200 nM | COc1cnc(Cl)cc1-c1cc(C)ncc1C(=O)Nc1nnc(OC[C@H]2CC[C@H](F)CC2)s1 [Example 197, 2′-chloro-N-(5-(((1r,4r)-4-fluorocyclohexyl)methoxy)-1,3,4-thiadiazol-2-yl)-5′-methoxy-6-methyl-(4,4′-bipyridine)-3-carboxamide] |
| ≤ 200 nM | COc1cnc(Cl)cc1-c1cc(C)ncc1C(=O)Nc1nnc(OCC2(F)CC2)s1 [Example 198, 2′-chloro-N-(5-((1-fluorocyclopropyl)methoxy)-1,3,4-thiadiazol-2-yl)-5′-methoxy-6-methyl-(4,4′-bipyridine)-3-carboxamide] |
| ≤ 200 nM | COc1cccc(F)c1-c1cn2ncc(F)c2cc1C(=O)Nc1nnc(OC[C@H]2CC[C@H](O)CC2)s1 [Example 201, 3-fluoro-6-(2-fluoro-6-methoxyphenyl)-N-(5-(((1r,4r)-4-hydroxycyclohexyl)methoxy)-1,3,4-thiadiazol-2-yl)pyrazolo(1,5-a)pyridine-5-carboxamide] |
| ≤ 200 nM | COc1cnc(Cl)cc1-c1cc(C)ncc1C(=O)Nc1nnc(OC[C@@H]2C[C@@H]2F)s1 [Example 202, 2′-chloro-N-(5-(((1S,2S)-2-fluorocyclopropyl)methoxy)-1,3,4-thiadiazol-2-yl)-5′-methoxy-6-methyl-(4,4′-bipyridine)-3-carboxamide] |
| ≤ 200 nM | COc1cnc(C)cc1-c1cc(C)ncc1C(=O)Nc1nnc(OCC2(F)CC2)s1 [Example 203, N-(5-((1-fluorocyclopropyl)methoxy)-1,3,4-thiadiazol-2-yl)-5′-methoxy-2′,6-dimethyl-(4,4′-bipyridine)-3-carboxamide] |
| ≤ 200 nM | COc1cnc(Cl)cc1-c1cc(C)ncc1C(=O)Nc1nnc(OCC2CCC2(F)F)s1 (centres unmarked) [Example 204, 2′-chloro-N-(5-((2,2-difluorocyclobutyl)methoxy)-1,3,4-thiadiazol-2-yl)-5′-methoxy-6-methyl-(4,4′-bipyridine)-3-carboxamide] |
| ≤ 200 nM | COc1cnc(Cl)cc1-c1cc(C)ncc1C(=O)Nc1nnc(OCC2(C#N)CC2)s1 [Example 205, 2′-chloro-N-(5-((1-cyanocyclopropyl)methoxy)-1,3,4-thiadiazol-2-yl)-5′-methoxy-6-methyl-(4,4′-bipyridine)-3-carboxamide] |
